# Measurements taken from patent US7919508B2, “3-piperidinylisochroman-5-ols as dopamine agonists” (Aventis Pharmaceuticals Inc., priority 2004, dated 2011).
# Counter-ions that a name gives are not always drawn.
# Assays:
# D1 receptor = target: T1, D1 receptor (Homo sapiens, UniProt P21728); assay: D1 Activation Adenylyl Cyclase Assay (cAMP FlashPlate, D1 transfected CHO cell line); format: cell-based; settings: agonist activity at the D1 receptor, adenylate cyclase assay, D1 transfected CHO cell line; read-out: D1 EC50
# T1 construct: expressed in transfected cells; host or cells: D1 transfected CHO cell line
# T1 sequence (P21728 whole entry): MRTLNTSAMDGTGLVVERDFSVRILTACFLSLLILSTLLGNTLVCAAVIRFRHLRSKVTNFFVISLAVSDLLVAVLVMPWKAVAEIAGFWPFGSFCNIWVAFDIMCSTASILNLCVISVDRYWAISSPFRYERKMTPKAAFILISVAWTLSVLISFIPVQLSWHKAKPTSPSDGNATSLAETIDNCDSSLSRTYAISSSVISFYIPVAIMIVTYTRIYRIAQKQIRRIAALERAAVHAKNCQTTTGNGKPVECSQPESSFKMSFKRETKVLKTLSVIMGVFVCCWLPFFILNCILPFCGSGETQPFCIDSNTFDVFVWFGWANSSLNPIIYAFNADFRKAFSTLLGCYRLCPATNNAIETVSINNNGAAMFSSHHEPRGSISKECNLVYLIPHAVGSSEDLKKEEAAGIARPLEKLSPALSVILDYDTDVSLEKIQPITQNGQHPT
# Experimental: D1 Activation Adenylyl Cyclase Assay
# Purpose: To measure D1-agonist activity compounds using an Adenylyl Cyclase Activation Flash Plate Assay from NEN.
# Buffers: Activation and Detection buffers are provided from NEN: Catalog # SMP004A.
# Maintenance of D1 transfected CHO cell line: • 1. Cells are grown in a 150 cc flask in an incubator at 37° C. with 5% CO2 for 2-3 days (4 maximum) until confluent. • 2. Aspirate off old media (Cells adhere to the plastic flask), wash 2× with sterile PBS. • 3. Add ˜5 mL of Trypsin EDTA (enough to cover bottom of the flask) for 5 min. at RT. • 4. Stop digestion with 15 mL of Media (Ham's F12 plus 10% FBS, 1% P/S, 400 μg/mL G418). • Bang flask on counter to release them from the flask. • 5. Add 2 mL of this to 30 mL of Media in a fresh flask. Return to incubator. Preparation of Cells for Assay: • 1. Loosen the cells with 5 mL Vercine (EDTA)/flask for 10 minutes in incubator. • 2. Add 20 mL of Serum-free media/flask. Transfer to 50-mL Falcon tube. • 3. Spin down cells at 1000 RPM for 5 minutes at 4° C. • 4. Aspirate off old media and resuspend in 5 mL of Serum-free media/plate to be done. • 5. Dilute 10 μL 1/10 in 90 μL Trypan Blue solution and count with a hemocytometer. • Count (live cells only) all four areas and average them. • Count X 10^5 equals cells/mL (including accounting for dilution in Trypan). • 6. Dilute to 50,000 cells/50 μL (1,000,000 cells/mL) in Serum-free media. • 7. Put 50 μL/well in Rows 3-12 of a cAMP FlashPlate. • 8. Put in incubator at 37° C. for 2-4 hours, to allow cells to recover and attach. Adenylyl Cyclase Activation Assay: • 1. Prepare the cAMP standards: • Add 130 μL/well of stimulation buffer to each row of a separate 96-well “standard” plate, 2 columns/plate. • Dilute stock cAMP standard 1/5 with stimulation buffer (final concentration is 1000 pmol/mL). Add 130 μL of this to row A. • Make 1/2 serial dilutions by adding 130 μL from each well to the next (A-G), mixing between each. • Final concentrations are: • A: 500, B: 250, C: 125, D: 62.5, E: 31.25, F: 15.6, G: 7.8, H: 0 pmol/mL. • Place 100 μL from each row from 2 columns of the standard plate into columns 1 and 2 of each “reaction” plate. • 2. Prepare the negative and positive control in the “reaction” plate: • Column 3, rows A-D, add 100 μL stimulation buffer (negative control). • Column 3, rows E-H, add 90 μL of stimulation buffer plus 10 μL of 200 μM APO (positive control, […]). (10 μL 10 mM APO, plus 490 μL stim. buffer=1/50 dilution.) • 3. Prepare the agonist compound dilutions in the “compound” plate: • Add 80 μL of stimulation buffer to row A (One column for each compound), and 90 μL of stimulation buffer to rows B—H. • Add 20 μL of 10 mM of each compound to appropriate row A. • Make 1/10 serial dilutions by adding 10 μL from each well to the next (A-H), mixing between each. • 4. […]. Prepare Detection/Stop buffer by adding 90 μL/plate of cAMP-^125I to 10 mL/plate plus 6 mL (for dead volume) of detection buffer. Steps 6-8 performed with the Multi-Mek. • 6. Add 50 μL to each well of the FlashPlate with CHO cells set up earlier. • 7. Incubate at RT for 8 minutes. • 8. Stop reaction by adding 100 μL of detection/stop buffer to each well. • 9. Cover with plastic film and incubate at RT for 16-24 hours (don't wait more than 24 hours). • 10. Count in a Packard Top-Count. Calculations: • 1. Raw signals generated by cAMP standard wells, without cells, are averaged at each cAMP concentration and converted to % B/Bo by dividing the raw signal at each cAMP concentration by the raw signal with no cAMP added. • 2. These values are used to generate a standard curve by plotting cAMP concentration versus % B/Bo. • 3. Raw data for each compound at each concentration is also converted to % B/B. by the same method. • 4. These values are then converted to pmol cAMP/mL using the standard curve. • 5. These cAMP values are then averaged across the three replicates for each compound concentration. • 6. […]
# [1] = target: T2, human dopamine D1 receptor (Homo sapiens, UniProt P21728); assay: [3H]-SCH-23390 binding to cloned human dopamine D1 receptors (CHO cell membranes); settings: competitive binding, [3H]-SCH-23390, cloned human D1 in CHO membranes; read-out: D1 affinity Ki
# T2 construct: A 1.4 Kb Hind III to Xho I fragment was subcloned into the vector pMMLV; expressed in transfected cells; host or cells: CHO cells, clone CHO-D1M#9 (plasmid pHD1MMLV), membranes
# T2 sequence (P21728 whole entry, the tested form may be a part): as the sequence (P21728 whole entry) above
SMILES,EC50 (D1 receptor) [nM],Ki [1] [nM]
"COc1ccc(CN2CCC([C@@H]3Cc4c(ccc(C)c4O)[C@H](CN)O3)CC2)cc1 [Example 61, (1R,3S)-1-Aminomethyl-3-[1-(4-methoxy-benzyl)-piperidin-4-yl]-6-methyl-isochroman-5-ol dihydrochloride]",47,19.8
"CNC[C@@H]1O[C@H](C2CCN(C)CC2)Cc2c1ccc(C)c2O [Example 102, (1R,3S)-6-Methyl-1-methylaminomethyl-3-(1-methyl-piperidin-4-yl)-isochroman-5-ol dihydrobromide]",1500,147
"Cc1ccc2c(c1O)C[C@@H](C1CCN(Cc3ccccc3)CC1)O[C@H]2CN [Example 93, (1R,3S)-1-Aminomethyl-3-[1-(benzyl)-piperidin-4-yl]-6-methyl-isochroman-5-ol dihydrobromide]",45,–
"Cc1ccc2c(c1O)C[C@@H](C1CCN(CCC(C)c3ccccc3)CC1)O[C@H]2CN (stereo partly drawn) [Example 27, (1R,3S)-1-Aminomethyl-6-methyl-3-[1-(3-phenyl-butyl)-piperidin-4-yl]-isochroman-5-ol dihydrobromide]",280,–
"Cc1ccc2c(c1O)C[C@@H](C1CCN(CCCC(c3ccc(F)cc3)c3ccc(F)cc3)CC1)O[C@H]2CN [Example 108, (1R,3S)-1-Aminomethyl-3-{1-[4,4-bis-(4-fluoro-phenyl)-butyl]-piperidin-4-yl}-6-methyl-isochroman-5-ol dihydrobromide]",36,110
"Cc1ccc(C(=O)NC(C)CCN2CCC([C@@H]3Cc4c(ccc(C)c4O)[C@H](CN)O3)CC2)cc1 (stereo partly drawn) [Example 15, N-{3-[4-((1R,3S)-1-Aminomethyl-5-hydroxy-6-methyl-isochroman-3-yl)-piperidin-1-yl]-1-methyl-propyl}-4-methyl-benzamide dihydrochloride]",11,126
"Cc1ccc2c(c1O)C[C@@H](C1CCN(Cc3ccncc3)CC1)O[C@H]2CN [Example 54, (1R,3S)-1-Aminomethyl-6-methyl-3-(1-pyridin-4-ylmethyl-piperidin-4-yl)-isochroman-5-ol dihydrochloride]",45,153
"Cc1ccc2c(c1O)C[C@@H](C1CCN(CCCc3ccccc3)CC1)O[C@H]2CN [Example 110, (1R,3S)-1-Aminomethyl-6-methyl-3-[1-(3-phenyl-propyl)-piperidin-4-yl]-isochroman-5-ol dihydrochloride]",6,–
"Cc1ccc2c(c1O)C[C@@H](C1CCN(CCC(C)NC(=O)c3ccc(Br)cc3)CC1)O[C@H]2CN (stereo partly drawn) [Example 23, N-{3-[4-((1R,3S)-1-Aminomethyl-5-hydroxy-6-methyl-isochroman-3-yl)-piperidin-1-yl]-1-methyl-propyl}-4-bromo-benzamide dihydrochloride]",59,91.8

# The remaining lines, values ahead:
EC50 (D1 receptor) [nM],Ki [1] [nM],SMILES
220,21,"CNC[C@@H]1O[C@H](C2CCN(Cc3ccc(C(F)(F)F)cc3)CC2)Cc2c1ccc(C)c2O [Example 181, (1R,3S)-6-Methyl-1-methylaminomethyl-3-[1-(4-trifluoromethyl-benzyl)-piperidin-4-yl]-isochroman-5-ol hydrochloride]"
1300,255,"CCNC[C@@H]1O[C@H](C2CCN(Cc3ccc(C(F)(F)F)cc3)CC2)Cc2c1ccc(C)c2O [Example 182, (1R,3S)-1-Ethylaminomethyl-6-methyl-3-[1-(4-trifluoromethyl-benzyl)-piperidin-4-yl]-isochroman-5-ol]"
10,32.5,"Cc1ccc2c(c1O)C[C@@H](C1CCN(Cc3cccc(F)c3)CC1)O[C@H]2CN [Example 69, (1R,3S)-1-Aminomethyl-3-[1-(3-fluoro-benzyl)-piperidin-4-yl]-6-methyl-isochroman-5-ol dihydrochloride]"
6,75.7,"Cc1ccc(CN2CCC([C@@H]3Cc4c(ccc(C)c4O)[C@H](CN)O3)CC2)cc1 [Example 66, (1R,3S)-1-Aminomethyl-6-methyl-3-[1-(4-methyl-benzyl)-piperidin-4-yl]-isochroman-5-ol dihydrochloride]"
31000,45,"Cc1ccc2c(c1O)C[C@@H](C1CCN(Cc3ccc(C(F)(F)F)cc3)CC1)O[C@H]2CN(C)C [Example 168, (1R,3S)-1-Dimethylaminomethyl-6-methyl-i-3-[1-(4-trifluoromethylbenzyl)piperidin-4-yl]-isochroman-5-ol]"
420,94.2,"Cc1ccc2c(c1O)C[C@@H](C1CCN(Cc3ccoc3)CC1)O[C@H]2CN [Example 71, (1R,3S)-1-Aminomethyl-3-(1-furan-3-ylmethyl-piperidin-4-yl)-6-methyl-isochroman-5-ol hydrochloride]"
9,6.8,"Cc1ccc2c(c1O)C[C@@H](C1CCN(Cc3ccc(F)c(F)c3)CC1)O[C@H]2CN [Example 63, (1R,3S)-1-Aminomethyl-3-[1-(3,4-difluoro-benzyl)-piperidin-4-yl]-6-methyl-isochroman-5-ol dihydrochloride]"
14,46.1,"Cc1ccc2c(c1O)C[C@@H](C1CCN(Cc3ccc(O)cc3)CC1)O[C@H]2CN [Example 62, (1R,3S)-1-Aminomethyl-3-[1-(4-hydroxy-benzyl)-piperidin-4-yl]-6-methyl-isochroman-5-ol dihydrochloride]"
10,52,"Cc1ccc2c(c1O)C[C@@H](C1CCN(Cc3ccc(Cl)cc3)CC1)O[C@H]2CN [Example 58, (1R,3S)-1-Aminomethyl-3-[1-(4-chloro-benzyl)-piperidin-4-yl]-6-methyl-isochroman-5-ol dihydrochloride]"
7000,123,"CCN(C)C[C@@H]1O[C@H](C2CCN(Cc3ccc(C(F)(F)F)cc3)CC2)Cc2c1ccc(C)c2O [Example 183, (1R,3S)-1-[(Ethyl-methyl-amino)-methyl]-6-methyl-3-[1-(4-trifluoromethyl-benzyl)-piperidin-4-yl]-isochroman-5-ol]"
77,19.4,"Cc1ccc2c(c1O)C[C@@H](C1CCN(Cc3ccc(C(F)(F)F)cc3F)CC1)O[C@H]2CN [Example 70, (1R,3S)-1-Aminomethyl-3-[1-(2-fluoro-4-trifluoromethyl-benzyl)-piperidin-4-yl]-6-methyl-isochroman-5-ol dihydrochloride]"
9,62.6,"Cc1ccc2c(c1O)C[C@@H](C1CCN(Cc3ccsc3)CC1)O[C@H]2CN [Example 67, (1R,3S)-1-Aminomethyl-6-methyl-3-(1-thiophen-3-ylmethyl-piperidin-4-yl)-isochroman-5-ol dihydrochloride]"
